Results published in ChEMBL document CHEMBL3132769, “Fragment growing to retain or alter the selectivity of anchored kinase hinge-binding fragments” (Medchemcomm, 2014).

Assays:
[1] = molecular target: T1, Protein kinase C epsilon type (Homo sapiens) (UniProt Q02156); test: Inhibition of human truncated PKC epsilon expressed in baculovirus assessed as substrate phosphorylation using fluorescence-labelled peptides as substrate at 0.06 uM after 90 mins by microfluidic peptide phosphorylation assay
T1 sequence (whole entry): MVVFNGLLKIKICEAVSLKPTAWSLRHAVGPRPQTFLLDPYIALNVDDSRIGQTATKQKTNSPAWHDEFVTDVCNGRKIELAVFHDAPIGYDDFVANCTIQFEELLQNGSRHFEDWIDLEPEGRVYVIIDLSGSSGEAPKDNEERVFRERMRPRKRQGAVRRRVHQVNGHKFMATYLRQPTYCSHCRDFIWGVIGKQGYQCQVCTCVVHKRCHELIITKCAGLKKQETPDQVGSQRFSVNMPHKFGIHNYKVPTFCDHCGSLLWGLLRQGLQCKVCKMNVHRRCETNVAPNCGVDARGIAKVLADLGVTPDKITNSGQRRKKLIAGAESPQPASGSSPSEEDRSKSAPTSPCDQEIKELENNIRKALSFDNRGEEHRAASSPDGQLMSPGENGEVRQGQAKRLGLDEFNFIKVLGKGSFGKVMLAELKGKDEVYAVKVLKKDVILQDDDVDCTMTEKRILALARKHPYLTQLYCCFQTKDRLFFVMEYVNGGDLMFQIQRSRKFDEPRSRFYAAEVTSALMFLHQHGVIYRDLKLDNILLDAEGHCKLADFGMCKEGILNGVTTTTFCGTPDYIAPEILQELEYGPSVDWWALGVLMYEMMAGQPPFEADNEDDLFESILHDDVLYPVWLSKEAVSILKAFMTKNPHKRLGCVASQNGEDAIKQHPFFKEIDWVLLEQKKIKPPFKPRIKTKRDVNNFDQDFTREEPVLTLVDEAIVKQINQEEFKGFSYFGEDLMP

[2] = molecular target: Cyclin-dependent kinase 2 (Homo sapiens) (UniProt P24941); test: Inhibition of human full length CDK2 expressed in baculovirus assessed as substrate phosphorylation using fluorescence-labelled peptides as substrate at 0.2 uM after 90 mins by microfluidic peptide phosphorylation assay
[3] = test system: Tyrosine-protein kinase ABL1 (Homo sapiens), P00519 [T315I]; test: Inhibition of human truncated ABL T315I mutant expressed in baculovirus assessed as substrate phosphorylation using fluorescence-labelled peptides as substrate at 420 uM after 90 mins by microfluidic peptide phosphorylation assay
[4] = molecular target: Epidermal growth factor receptor (Homo sapiens) (UniProt P00533); test: Inhibition of human EGFR catalytic domain expressed in baculovirus assessed as substrate phosphorylation using fluorescence-labelled peptides as substrate at 95 uM after 90 mins by microfluidic peptide phosphorylation assay
Chain of Epidermal growth factor receptor (Homo sapiens) (P00533 whole entry, the tested form may be a part): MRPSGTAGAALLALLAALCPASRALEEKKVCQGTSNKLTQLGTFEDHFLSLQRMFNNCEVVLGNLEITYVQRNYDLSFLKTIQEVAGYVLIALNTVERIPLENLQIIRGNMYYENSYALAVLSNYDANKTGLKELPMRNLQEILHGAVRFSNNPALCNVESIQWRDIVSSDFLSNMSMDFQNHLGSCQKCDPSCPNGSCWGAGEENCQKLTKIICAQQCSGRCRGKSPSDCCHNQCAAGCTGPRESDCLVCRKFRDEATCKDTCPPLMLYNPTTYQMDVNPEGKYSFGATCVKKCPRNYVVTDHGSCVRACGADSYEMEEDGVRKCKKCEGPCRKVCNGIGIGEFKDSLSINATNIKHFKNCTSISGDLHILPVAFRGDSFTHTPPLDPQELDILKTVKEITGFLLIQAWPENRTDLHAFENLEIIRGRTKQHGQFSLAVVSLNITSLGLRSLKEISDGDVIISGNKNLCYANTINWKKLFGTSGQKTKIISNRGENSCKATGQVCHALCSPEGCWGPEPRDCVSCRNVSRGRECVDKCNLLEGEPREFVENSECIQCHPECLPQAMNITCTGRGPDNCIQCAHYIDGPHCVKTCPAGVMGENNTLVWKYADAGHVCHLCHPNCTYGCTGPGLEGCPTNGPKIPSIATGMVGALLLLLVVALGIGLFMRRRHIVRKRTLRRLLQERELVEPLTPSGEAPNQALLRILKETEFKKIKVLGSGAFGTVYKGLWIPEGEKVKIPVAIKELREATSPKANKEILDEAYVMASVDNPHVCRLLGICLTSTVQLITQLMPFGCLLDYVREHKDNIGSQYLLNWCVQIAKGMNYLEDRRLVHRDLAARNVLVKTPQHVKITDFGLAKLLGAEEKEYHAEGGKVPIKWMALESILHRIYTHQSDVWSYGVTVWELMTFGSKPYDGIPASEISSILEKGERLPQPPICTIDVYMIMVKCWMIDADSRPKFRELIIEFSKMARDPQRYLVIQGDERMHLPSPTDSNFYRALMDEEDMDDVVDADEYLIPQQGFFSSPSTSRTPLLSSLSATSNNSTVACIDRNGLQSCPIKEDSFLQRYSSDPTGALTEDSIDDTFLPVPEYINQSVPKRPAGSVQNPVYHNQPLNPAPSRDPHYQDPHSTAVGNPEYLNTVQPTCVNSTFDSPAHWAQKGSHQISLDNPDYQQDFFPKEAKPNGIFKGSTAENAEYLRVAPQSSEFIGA

[5] = molecular target: T2, Serine/threonine-protein kinase D2 (Homo sapiens) (UniProt Q9BZL6); test: Inhibition of human full length PKD2 expressed in baculovirus assessed as substrate phosphorylation using fluorescence-labelled peptides as substrate at 95 uM after 90 mins by microfluidic peptide phosphorylation assay
T2 sequence (whole entry): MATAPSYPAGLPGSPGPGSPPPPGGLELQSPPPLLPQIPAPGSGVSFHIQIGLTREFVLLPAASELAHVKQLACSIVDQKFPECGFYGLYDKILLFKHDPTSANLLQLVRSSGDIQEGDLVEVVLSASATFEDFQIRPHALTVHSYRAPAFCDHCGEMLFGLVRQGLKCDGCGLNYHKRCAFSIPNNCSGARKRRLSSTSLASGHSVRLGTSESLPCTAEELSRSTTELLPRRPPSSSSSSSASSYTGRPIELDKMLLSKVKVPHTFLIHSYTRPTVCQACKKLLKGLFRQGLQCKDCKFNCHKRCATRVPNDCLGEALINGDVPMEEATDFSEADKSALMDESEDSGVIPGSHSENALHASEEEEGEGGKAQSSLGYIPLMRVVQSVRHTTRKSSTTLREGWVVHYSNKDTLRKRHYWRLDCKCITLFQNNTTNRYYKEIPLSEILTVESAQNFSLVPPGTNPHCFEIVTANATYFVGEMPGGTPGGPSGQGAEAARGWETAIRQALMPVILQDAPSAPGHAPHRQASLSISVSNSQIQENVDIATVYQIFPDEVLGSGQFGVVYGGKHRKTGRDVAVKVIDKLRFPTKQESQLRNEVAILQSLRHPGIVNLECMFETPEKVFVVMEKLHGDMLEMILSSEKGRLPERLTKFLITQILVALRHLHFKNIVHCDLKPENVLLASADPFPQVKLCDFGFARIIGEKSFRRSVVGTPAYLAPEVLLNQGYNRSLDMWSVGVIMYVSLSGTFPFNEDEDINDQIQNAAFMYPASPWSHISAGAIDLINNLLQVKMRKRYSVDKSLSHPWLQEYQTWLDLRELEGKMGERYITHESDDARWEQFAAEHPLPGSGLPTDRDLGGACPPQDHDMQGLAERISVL

[6] = molecular target: Protein kinase C beta type (Homo sapiens) (UniProt P05771); test: Inhibition of human truncated PKC beta1 expressed in baculovirus assessed as substrate phosphorylation using fluorescence-labelled peptides as substrate at 95 uM after 90 mins by microfluidic peptide phosphorylation assay
Chain of Protein kinase C beta type (Homo sapiens) (P05771 2-671 limits assumed): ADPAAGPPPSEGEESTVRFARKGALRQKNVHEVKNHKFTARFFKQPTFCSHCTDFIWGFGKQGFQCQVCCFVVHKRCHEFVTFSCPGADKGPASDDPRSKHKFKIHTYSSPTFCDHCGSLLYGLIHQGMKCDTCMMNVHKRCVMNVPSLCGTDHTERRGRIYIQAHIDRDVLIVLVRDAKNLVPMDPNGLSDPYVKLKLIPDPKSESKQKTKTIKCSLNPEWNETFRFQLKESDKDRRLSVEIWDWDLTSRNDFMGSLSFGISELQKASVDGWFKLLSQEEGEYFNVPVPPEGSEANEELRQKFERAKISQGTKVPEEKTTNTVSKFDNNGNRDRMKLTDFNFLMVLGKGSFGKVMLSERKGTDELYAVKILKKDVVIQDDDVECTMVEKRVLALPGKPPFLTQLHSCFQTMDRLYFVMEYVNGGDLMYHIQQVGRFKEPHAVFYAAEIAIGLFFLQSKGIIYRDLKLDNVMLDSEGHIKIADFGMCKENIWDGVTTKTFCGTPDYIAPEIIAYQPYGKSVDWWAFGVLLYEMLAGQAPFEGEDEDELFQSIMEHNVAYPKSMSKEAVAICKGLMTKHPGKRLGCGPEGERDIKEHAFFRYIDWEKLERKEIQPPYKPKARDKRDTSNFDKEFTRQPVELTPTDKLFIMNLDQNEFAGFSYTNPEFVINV

[7] = molecular target: Protein kinase C theta type (Homo sapiens) (UniProt Q04759); test: Inhibition of human truncated PKC theta expressed in baculovirus assessed as substrate phosphorylation using fluorescence-labelled peptides as substrate at 9 uM after 90 mins by microfluidic peptide phosphorylation assay
Chain of Protein kinase C theta type (Homo sapiens) (Q04759 whole entry, looked up, the tested form may be a part): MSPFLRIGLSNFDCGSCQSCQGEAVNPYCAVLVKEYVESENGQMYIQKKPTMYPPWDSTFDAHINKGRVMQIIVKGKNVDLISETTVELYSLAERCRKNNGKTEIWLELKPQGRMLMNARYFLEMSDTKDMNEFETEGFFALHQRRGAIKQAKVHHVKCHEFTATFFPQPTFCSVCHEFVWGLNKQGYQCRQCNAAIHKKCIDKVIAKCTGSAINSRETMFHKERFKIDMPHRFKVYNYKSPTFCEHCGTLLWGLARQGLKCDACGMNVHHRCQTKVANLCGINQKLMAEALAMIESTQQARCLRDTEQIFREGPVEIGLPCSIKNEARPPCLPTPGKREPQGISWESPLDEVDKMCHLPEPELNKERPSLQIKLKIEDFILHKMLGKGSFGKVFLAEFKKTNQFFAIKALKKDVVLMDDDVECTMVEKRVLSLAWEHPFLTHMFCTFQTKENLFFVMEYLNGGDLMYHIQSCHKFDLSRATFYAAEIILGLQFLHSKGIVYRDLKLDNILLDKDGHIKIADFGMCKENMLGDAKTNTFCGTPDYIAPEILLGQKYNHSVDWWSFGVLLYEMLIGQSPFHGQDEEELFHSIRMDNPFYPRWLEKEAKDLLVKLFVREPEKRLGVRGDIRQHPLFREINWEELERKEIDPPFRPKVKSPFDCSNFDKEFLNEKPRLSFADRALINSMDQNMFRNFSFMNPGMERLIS

[8] = molecular target: Tyrosine-protein kinase Fer (Homo sapiens) (UniProt P16591); test: Inhibition of human FER catalytic domain expressed in baculovirus assessed as substrate phosphorylation using fluorescence-labelled peptides as substrate at 9 uM after 90 mins by microfluidic peptide phosphorylation assay
Chain of Tyrosine-protein kinase Fer (Homo sapiens) (P16591 whole entry, looked up, the tested form may be a part): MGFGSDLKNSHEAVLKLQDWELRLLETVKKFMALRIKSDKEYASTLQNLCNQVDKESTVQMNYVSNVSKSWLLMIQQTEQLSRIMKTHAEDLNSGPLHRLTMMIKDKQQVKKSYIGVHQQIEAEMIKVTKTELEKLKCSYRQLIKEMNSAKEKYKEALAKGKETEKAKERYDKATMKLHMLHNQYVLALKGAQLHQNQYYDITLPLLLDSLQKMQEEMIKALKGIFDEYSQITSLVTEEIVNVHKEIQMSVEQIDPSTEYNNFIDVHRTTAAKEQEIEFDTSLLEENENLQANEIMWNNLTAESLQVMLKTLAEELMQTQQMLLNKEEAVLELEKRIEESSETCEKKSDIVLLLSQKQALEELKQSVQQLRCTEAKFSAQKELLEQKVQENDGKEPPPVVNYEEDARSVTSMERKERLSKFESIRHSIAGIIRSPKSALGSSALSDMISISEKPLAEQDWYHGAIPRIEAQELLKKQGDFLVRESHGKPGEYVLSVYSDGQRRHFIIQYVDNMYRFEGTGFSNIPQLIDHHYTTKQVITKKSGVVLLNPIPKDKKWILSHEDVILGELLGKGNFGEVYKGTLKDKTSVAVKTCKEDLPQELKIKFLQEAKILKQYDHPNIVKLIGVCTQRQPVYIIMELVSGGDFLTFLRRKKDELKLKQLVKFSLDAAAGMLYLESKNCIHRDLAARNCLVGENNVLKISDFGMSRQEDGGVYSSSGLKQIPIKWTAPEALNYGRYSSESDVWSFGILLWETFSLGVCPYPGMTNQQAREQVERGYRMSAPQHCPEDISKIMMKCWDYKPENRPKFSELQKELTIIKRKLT

[9] = test system: Tyrosine-protein kinase ABL1 (Homo sapiens), P00519 [H396P]; test: Inhibition of human truncated ABL H396P mutant expressed in baculovirus assessed as substrate phosphorylation using fluorescence-labelled peptides as substrate at 9 uM after 90 mins by microfluidic peptide phosphorylation assay
[10] = molecular target: Protein kinase C gamma type (Homo sapiens) (UniProt P05129); test: Inhibition of human truncated PKC gamma expressed in baculovirus assessed as substrate phosphorylation using fluorescence-labelled peptides as substrate at 1000 uM after 90 mins by microfluidic peptide phosphorylation assay
[11] = molecular target: Tyrosine-protein kinase Lck (Homo sapiens) (UniProt P06239); test: Inhibition of human full length LCK expressed in baculovirus assessed as substrate phosphorylation using fluorescence-labelled peptides as substrate at […] after 90 mins by microfluidic peptide phosphorylation assay
Chain of Tyrosine-protein kinase Lck (Homo sapiens) (P06239 2-509 limits assumed): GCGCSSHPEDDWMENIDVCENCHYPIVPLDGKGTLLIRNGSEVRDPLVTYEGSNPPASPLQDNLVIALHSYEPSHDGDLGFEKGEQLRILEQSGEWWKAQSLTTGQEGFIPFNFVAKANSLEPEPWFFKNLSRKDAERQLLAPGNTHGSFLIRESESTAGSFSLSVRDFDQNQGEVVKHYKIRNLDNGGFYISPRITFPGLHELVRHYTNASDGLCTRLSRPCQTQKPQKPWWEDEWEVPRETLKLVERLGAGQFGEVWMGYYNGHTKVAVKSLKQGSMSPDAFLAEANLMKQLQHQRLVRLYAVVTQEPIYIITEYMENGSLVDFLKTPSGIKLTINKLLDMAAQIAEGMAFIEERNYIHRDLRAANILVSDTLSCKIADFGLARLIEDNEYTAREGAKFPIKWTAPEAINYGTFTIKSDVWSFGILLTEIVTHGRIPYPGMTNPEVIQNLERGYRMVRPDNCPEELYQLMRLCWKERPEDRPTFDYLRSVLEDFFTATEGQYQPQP

[12] = molecular target: Mitogen-activated protein kinase kinase kinase kinase 4 (Homo sapiens) (UniProt O95819); test: Inhibition of human HGK catalytic domain expressed in baculovirus assessed as substrate phosphorylation using fluorescence-labelled peptides as substrate at […] after 90 mins by microfluidic peptide phosphorylation assay
[13] = molecular target: Dual specificity tyrosine-phosphorylation-regulated kinase 1A (Rattus norvegicus) (UniProt Q63470); test: Inhibition of rat full length DYRK1a expressed in Escherichia coli cell assessed as substrate phosphorylation using fluorescence-labelled peptides as substrate at 0.1 uM after 90 mins by microfluidic peptide phosphorylation assay

## NC1(Cc2ccc(Cl)cc2)CCN(c2ncnc3[nH]ccc23)CC1
[1]
  inhibition: 1.5%

## Clc1ccc(C2(c3ccc(-c4ncnc5[nH]cnc45)cc3)CCNCC2)cc1
[2]
  inhibition: 7.5%

## c1nc(N2CCOCC2)c2nc[nH]c2n1
[3]
  inhibition: 73%

## NCCc1ccc(-c2ncnc3[nH]cnc23)cc1
[4]
  inhibition: 19.5%
[5]
  inhibition: 77.5%
[6]
  inhibition: 77%

## NCC1CN(c2ncnc3[nH]c4cnccc4c23)CCO1 (stereo not drawn)
[7]
  inhibition: 52.5%
[8]
  inhibition: 11%
[9]
  inhibition: 16%

## c1cnc2[nH]ccc2c1
[10]
  inhibition: 57%

## COC(=O)c1cnc(Nc2cnc(C#N)cn2)cc1NCC1CCNCC1
[11]
  inhibition: 5.5%
[12]
  inhibition: 3%

## C[C@H](CN(C)C)Oc1nc(Nc2cc3cccc(Cl)c3cn2)cnc1C#N
[13]
  inhibition: 3.5%
